Data: US8946282B2, “Indolin-2-one derivatives as protein kinase inhibitors” (Annji Pharmaceutical Co., Ltd., priority 2012, dated 2015)

Columns and labels:
[1] = tested on: MV4-11 human acute myelomonocytic leukemia cells; assay: anti-proliferation, SRB colorimetric assay, MV4-11; format: cell-based; details: concentration required for 50% growth inhibition
Experimental: HCT116 human colorectal carcinoma cells (Table 3), HepG2 human hepatocellular carcinoma cells (Table 4), and MV4-11 human acute myelomonocytic leukemia cells (Table 5). Cells were treated with the test compound and the concentration required for 50% growth inhibition (IC50) determined by sulfomodamine B (SRB) colorimetric assay.

aurora B = aurora B (Homo sapiens, UniProt Q96GD4); assay: radioisotope-based P81 filter-binding assay, aurora B kinase; format: biochemical; details: averaged from two independent dose-response curves; read-out: Enzyme assay IC50 Aur B
Experimental: (§1) Compounds of formula (I)-(IV) were evaluated for abilities in inhibiting protein kinases aurora B and FLT-3 activity using radioisotope-based P81 filter-binding assay (Table 1).

FLT-3 = biological target: T1, FLT-3 (Homo sapiens, UniProt P36888); assay: radioisotope-based P81 filter-binding assay, FLT-3 kinase; format: biochemical; details: averaged from two independent dose-response curves; read-out: Enzyme assay IC50 FLT-3
T1 sequence (P36888 27-993): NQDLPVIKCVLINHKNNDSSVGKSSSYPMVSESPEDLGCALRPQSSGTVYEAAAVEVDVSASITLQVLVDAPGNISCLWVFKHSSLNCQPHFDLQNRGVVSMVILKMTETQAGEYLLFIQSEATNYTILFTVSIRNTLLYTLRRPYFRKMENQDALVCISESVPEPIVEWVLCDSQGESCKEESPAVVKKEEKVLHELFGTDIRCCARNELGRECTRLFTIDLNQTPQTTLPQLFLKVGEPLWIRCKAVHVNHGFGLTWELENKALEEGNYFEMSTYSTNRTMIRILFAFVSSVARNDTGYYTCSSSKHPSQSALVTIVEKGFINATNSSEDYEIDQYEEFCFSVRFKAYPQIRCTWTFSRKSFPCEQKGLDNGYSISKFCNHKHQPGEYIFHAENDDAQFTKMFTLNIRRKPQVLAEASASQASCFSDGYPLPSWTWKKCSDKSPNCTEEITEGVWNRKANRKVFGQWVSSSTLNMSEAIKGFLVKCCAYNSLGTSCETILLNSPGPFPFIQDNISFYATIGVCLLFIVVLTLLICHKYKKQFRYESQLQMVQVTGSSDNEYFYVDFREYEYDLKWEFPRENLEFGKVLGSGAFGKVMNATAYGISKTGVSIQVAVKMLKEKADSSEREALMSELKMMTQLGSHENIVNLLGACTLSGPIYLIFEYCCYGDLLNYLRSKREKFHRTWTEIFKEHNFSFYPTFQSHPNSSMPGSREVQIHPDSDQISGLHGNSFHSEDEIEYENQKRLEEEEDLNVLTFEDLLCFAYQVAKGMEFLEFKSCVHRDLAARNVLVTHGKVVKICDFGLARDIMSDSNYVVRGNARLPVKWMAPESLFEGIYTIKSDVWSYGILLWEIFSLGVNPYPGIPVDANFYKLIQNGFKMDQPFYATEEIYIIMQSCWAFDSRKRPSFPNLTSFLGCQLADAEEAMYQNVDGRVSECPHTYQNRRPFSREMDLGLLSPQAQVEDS
Experimental: as §1

Sequence of aurora B (Q96GD4 whole entry): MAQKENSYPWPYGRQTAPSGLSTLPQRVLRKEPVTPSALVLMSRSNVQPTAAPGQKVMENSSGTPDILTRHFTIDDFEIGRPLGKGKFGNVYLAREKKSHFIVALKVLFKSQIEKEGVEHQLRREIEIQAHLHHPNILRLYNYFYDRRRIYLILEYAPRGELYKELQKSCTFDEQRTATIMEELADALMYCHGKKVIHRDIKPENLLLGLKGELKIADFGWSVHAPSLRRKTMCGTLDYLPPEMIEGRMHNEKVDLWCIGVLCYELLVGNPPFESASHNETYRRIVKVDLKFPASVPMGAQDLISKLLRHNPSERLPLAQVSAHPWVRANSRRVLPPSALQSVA

Compound: Cc1[nH]c(/C=C2\C(=O)Nc3cc(NC(=O)c4c[nH]cc(-c5ccc(F)cc5)c4=O)ccc32)c(C)c1C(=O)O [D141, (Z)-5-((6-(5-(4-fluorophenyl)-4-oxo-1,4-dihydropyridine-3-carboxamido)-2-oxoindolin-3-ylidene)methyl)-2,4-dimethyl-1H-pyrrole-3-carboxylic acid]
- IC50 [1]: 0.81 nM
- melting point: 283 °C
- IC50 (aurora B): 3.5 nM
- IC50 (FLT-3): 2.9 nM

Compound: Cc1[nH]c(/C=C2\C(=O)Nc3cc(NC(=O)c4cccn(-c5ccc(F)cc5)c4=O)ccc32)c(C)c1C(=O)O [D120, (Z)-5-((6-(1-(4-fluorophenyl)-2-oxo-1,2-dihydropyridine-3-carboxamido)-2-oxoindolin-3-ylidene)methyl)-2,4-dimethyl-1H-pyrrole-3-carboxylic acid]
- IC50 [1]: 0.23 nM
- melting point: > 300 °C
- IC50 (aurora B): 10.7 nM
- IC50 (FLT-3): 8.1 nM

Compound: O=C1Nc2cc(NC(=O)c3cccn(-c4cccc(Cl)c4)c3=O)ccc2/C1=C/c1ccc[nH]1 [D114]
- IC50 [1]: 1.55 nM
- melting point: > 300 °C
- IC50 (aurora B): 251 nM
- IC50 (FLT-3): 91.2 nM

Compound: COc1ccc(-c2c[nH]cc(C(=O)Nc3ccc4c(c3)NC(=O)/C4=C\c3[nH]c(C)c(C(=O)O)c3C)c2=O)cc1 [D142, (Z)-5-((6-(5-(4-methoxyphenyl)-4-oxo-1,4-dihydropyridine-3-carboxamido)-2-oxoindolin-3-ylidene)methyl)-2,4-dimethyl-1H-pyrrole-3-carboxylic acid]
- IC50 [1]: 6.69 nM
- IC50 (aurora B): 4.5 nM
- IC50 (FLT-3): 24.6 nM

Compound: Cc1[nH]c(/C=C2\C(=O)Nc3cc(NC(=O)c4c[nH]cc(-c5ccc(F)cc5)c4=O)ccc32)c(C)c1CC(=O)O [D144, (Z)-2-(5-((6-(5-(4-fluorophenyl)-4-oxo-1,4-dihydropyridine-3-carboxamido)-2-oxoindolin-3-ylidene)methyl)-2,4-dimethyl-1H-pyrrol-3-yl)acetic acid]
- IC50 [1]: 22.8 nM
- melting point: > 300 °C
- IC50 (aurora B): 2.3 nM
- IC50 (FLT-3): 1.3 nM

Compound: Cc1[nH]c(/C=C2\C(=O)Nc3cc(NC(=O)c4cccn(-c5ccc(F)cc5)c4=O)ccc32)c(C)c1CC(=O)O [D121, (Z)-2-(5-((6-(1-(4-fluorophenyl)-2-oxo-1,2-dihydropyridine-3-carboxamido)-2-oxoindolin-3-ylidene)methyl)-2,4-dimethyl-1H-pyrrol-3-yl)acetic acid]
- IC50 [1]: 3.03 nM
- melting point: 275 °C (dec.)
- IC50 (aurora B): 5 nM
- IC50 (FLT-3): 7.3 nM

Compound: O=C(NC(=O)c1ccc(Cl)c(C(F)(F)F)c1)Nc1ccc2c(c1)NC(=O)/C2=C\c1ccc[nH]1 [D28, (Z)—N-(3-((1H-pyrrol-2-yl)methylene)-2-oxoindolin-6-ylcarbamoyl)-4-chloro-3-(trifluoromethyl)benzamide]
- IC50 [1]: 0.79 nM
- melting point: 280 to 285 °C (dec.)
- IC50 (aurora B): 15 nM
- IC50 (FLT-3): 385 nM

Compound: Cc1[nH]c(/C=C2\C(=O)Nc3cc(NC(=O)c4cccn(-c5ccc(F)cc5)c4=O)ccc32)c(C)c1CCC(=O)O [D122]
- IC50 [1]: 15.8 nM
- melting point: > 300 °C
- IC50 (aurora B): 5.5 nM
- IC50 (FLT-3): 3.5 nM

Compound: Cc1cc(C)c(/C=C2\C(=O)Nc3cc(NC(=O)c4cccn(-c5ccc(F)cc5)c4=O)ccc32)[nH]1 [D119, (Z)—N-(3-((3,5-dimethyl-1H-pyrrol-2-yl)methylene)-2-oxoindolin-6-yl)-1-(4-fluorophenyl)-2-oxo-1,2-dihydropyridine-3-carboxamide]
- IC50 [1]: 1.39 nM
- melting point: > 300 °C
- IC50 (aurora B): > 1000 nM
- IC50 (FLT-3): 8.1 nM

Compound: O=C1Nc2cc(NC(=O)c3cccn(-c4ccc(C(F)(F)F)cc4)c3=O)ccc2/C1=C/c1ccc[nH]1 [D112]
- IC50 [1]: 2.09 nM
- melting point: > 300 °C
- IC50 (aurora B): > 1000 nM
- IC50 (FLT-3): 137 nM

Compound: Cc1[nH]c(/C=C2\C(=O)Nc3cc(NC(=O)c4c[nH]cc(-c5ccc(F)cc5)c4=O)ccc32)c(C)c1CCC(=O)O [D145, (Z)-3-(5-((6-(5-(4-fluorophenyl)-4-oxo-1,4-dihydropyridine-3-carboxamido)-2-oxoindolin-3-ylidene)methyl)-2,4-dimethyl-1H-pyrrol-3-yl)propanoic acid]
- IC50 [1]: 9.45 nM
- melting point: > 300 °C
- IC50 (aurora B): 3.4 nM
- IC50 (FLT-3): 1.6 nM

Compound: COC(=O)CCc1c(C)[nH]c(/C=C2\C(=O)Nc3cc(NC(=O)c4cccn(-c5ccc(F)cc5)c4=O)ccc32)c1C [D123, (Z)-methyl-3-(5-((6-(1-(4-fluorophenyl)-2-oxo-1,2-dihydropyridine-3-carboxamido)-2-oxoindolin-3-ylidene)methyl)-2,4-dimethyl-1H-pyrrol-3-yl)propanoate]
- IC50 [1]: 1.56 nM
- melting point: 266 to 270 °C
- IC50 (aurora B): 238 nM
- IC50 (FLT-3): 45.2 nM

Compound: COc1ccc(-c2c[nH]cc(C(=O)Nc3ccc4c(c3)NC(=O)/C4=C\c3[nH]c(C)c(C(=O)NCCN4CCCC4)c3C)c2=O)cc1 [D156, (Z)—N-(3-((3,5-dimethyl-4-((2-(pyrrolidin-1-yl)ethyl)carbamoyl)-1H-pyrrol-2-yl)methylene)-2-oxoindolin-6-yl)-5-(4-methoxyphenyl)-4-oxo-1,4-dihydropyridine-3-carboxamide]
- IC50 [1]: 2.57 nM
- melting point: > 300 °C
- IC50 (aurora B): 19.2 nM
- IC50 (FLT-3): 11.6 nM

Compound: O=C1Nc2cc(NC(=O)c3cccn(-c4ccc(Cl)cc4)c3=O)ccc2/C1=C/c1ccc[nH]1 [D108]
- IC50 [1]: 0.88 nM
- melting point: > 300 °C
- IC50 (aurora B): > 1000 nM
- IC50 (FLT-3): 26.3 nM

Compound: O=C1Nc2cc(NC(=O)c3cccn(-c4ccc(Cl)c(C(F)(F)F)c4)c3=O)ccc2/C1=C/c1ccc[nH]1 [D109, (Z)—N-(3-((1H-pyrrol-2-yl)methylene)-2-oxoindolin-6-yl)-1-(4-chloro-(3-trifluoromethyl)phenyl)-2-oxo-1,2-dihydropyridine-3-carboxamide]
- IC50 [1]: 7.19 nM
- IC50 (aurora B): > 1000 nM
- IC50 (FLT-3): 77.4 nM

Compound: O=C1Nc2cc(NC(=O)c3cccn(-c4ccccc4F)c3=O)ccc2/C1=C/c1ccc[nH]1 [D115]
- IC50 [1]: 6.69 nM
- melting point: > 300 °C
- IC50 (aurora B): 138 nM
- IC50 (FLT-3): 535 nM

Compound: Cc1ccc(-n2cccc(C(=O)Nc3ccc4c(c3)NC(=O)/C4=C\c3ccc[nH]3)c2=O)cc1 [D111, (Z)—N-(3-((1H-pyrrol-2-yl)methylene)-2-oxoindolin-6-yl)-2-oxo-1-p-tolyl-1,2-dihydropyridine-3-carboxamide]
- IC50 [1]: 3.42 nM
- melting point: > 300 °C
- IC50 (aurora B): 209 nM
- IC50 (FLT-3): 37.5 nM

Compound: Cn1cc(C(=O)Nc2ccc3c(c2)NC(=O)/C3=C\c2ccc[nH]2)c(=O)c(-c2ccc(F)cc2)c1 [D138, (Z)—N-(3-((1H-pyrrol-2-yl)methylene)-2-oxoindolin-6-yl)-5-(4-fluorophenyl)-1-methyl-4-oxo-1,4-dihydropyridine-3-carboxamide]
- IC50 [1]: 17.8 nM
- IC50 (aurora B): 94.6 nM
- IC50 (FLT-3): > 1000 nM

Compound: O=C1Nc2cc(NC(=O)c3c[nH]cc(-c4ccc(F)cc4)c3=O)c(F)cc2/C1=C/c1ccc[nH]1 [D137, (Z)—N-(3-((1H-pyrrol-2-yl)methylene)-5-fluoro-2-oxoindolin-6-yl)-5-(4-fluorophenyl)-4-oxo-1,4-dihydropyridine-3-carboxamide]
- IC50 [1]: 0.97 nM
- melting point: > 300 °C
- IC50 (aurora B): 237 nM
- IC50 (FLT-3): 37.9 nM

Compound: O=C1Nc2cc(NC(=O)c3cccn(-c4ccccc4)c3=O)ccc2/C1=C/c1ccc[nH]1 [D105, (Z)—N-(3-((1H-pyrrol-2-yl)methylene)-2-oxoindolin-6-yl)-2-oxo-1-phenyl-1,2-dihydropyridine-3-carboxamide]
- IC50 [1]: 0.13 nM
- melting point: > 300 °C
- IC50 (aurora B): 87.4 nM
- IC50 (FLT-3): 48.4 nM

Compound: O=C1Nc2cc(NC(=O)c3cccn(-c4cccc(C(F)(F)F)c4)c3=O)ccc2/C1=C/c1ccc[nH]1 [D113]
- IC50 [1]: 2.78 nM
- melting point: > 300 °C
- IC50 (aurora B): 689 nM
- IC50 (FLT-3): 134 nM

Compound: COc1ccc(-c2c[nH]cc(C(=O)Nc3ccc4c(c3)NC(=O)/C4=C\c3[nH]c(C)c(C(=O)N4CCOCC4)c3C)c2=O)cc1 [D155, (Z)—N-(3-((3,5-dimethyl-4-(morpholine-4-carbonyl)-1H-pyrrol-2-yl)methylene)-2-oxoindolin-6-yl)-5-(4-methoxyphenyl)-4-oxo-1,4-dihydropyridine-3-carboxamide]
- IC50 [1]: 1.96 nM
- melting point: 205 °C (dec.)
- IC50 (aurora B): 42.8 nM
- IC50 (FLT-3): 34.9 nM
